Measurements from PMC7732025 (Archives of pharmacal research, 2013).

Key:
[1] = Cytotoxic assay, VERO cells; type: cell-based; conditions: African green monkey
VERO cells = assay: Cytotoxic assay, VERO cells; type: cell-based
[2] = Cytotoxic assay, primary human PBM cells; type: cell-based; conditions: human, primary human PBM cells
primary human PBM cells = assay: Cytotoxic assay, primary human PBM cells; type: cell-based; conditions: primary human PBM cells (lymphocytes)
in vitro = conditions: human, CEM cells
HIV-1 = assay: Anti-HIV-1 assay in activated primary human PBM cells; type: cell-based, human immunodeficiency virus type 1; conditions: for EC50: read-out: Anti-HIV-1 activity in human PBM cells EC50

IC50 at 5 day (in vitro) [µM]	SMILES	IC50 at 5 day [1] [µM]	toxicity in VERO cells (in words) (VERO cells)	IC50 at 5 day [2] [µM]	toxicity in primary human PBM cells (in words) (primary human PBM cells)	anti-HIV-1 activity (in words) (HIV-1)	toxicity in CEM cells (in words) (CEM cells)	EC50 (HIV-1) [µM]
23.9	CC(=NNC(=O)CN1c2c(-c3ccccc3)n[nH]c2-c2ccccc2S1(=O)=O)c1ccc2c(c1)OCCO2 [5q, N′-(1-(2,3-dihydrobenzo[b][1,4]dioxin-6-yl)ethylidene)-2-(5,5-dioxido-3-phenylbenzo[e]pyrazolo[4,3-c][1,2]thiazin-4(1H)-yl)acetohydrazide]	> 100	non-toxic	67.1	non-toxic	–	–	–
14.4	CC(=NNC(=O)CN1c2c(-c3ccccc3)n[nH]c2-c2ccccc2S1(=O)=O)c1cc(Cl)sc1Cl [5i, N′-(1-(2,5-dichlorothiophen-3-yl)ethylidene)-2-(5,5-dioxido-3-phenylbenzo[e]pyrazolo[4,3-c][1,2]thiazin-4(1H)-yl)acetohydrazide]	38.8	toxic	12.2	toxic	–	toxic	–
< 1	CC(=NNC(=O)CN1c2c(-c3ccccc3)n[nH]c2-c2ccccc2S1(=O)=O)c1ccc(Br)s1 [5p, N′-(1-(5-bromothiophen-2-yl)ethylidene)-2-(5,5-dioxido-3-phenylbenzo[e]pyrazolo[4,3-c][1,2]thiazin-4(1H)-yl)acetohydrazide]	18.1	–	10.5	–	–	–	–
> 100	CC(=NNC(=O)CN1c2c(-c3ccccc3)n[nH]c2-c2ccccc2S1(=O)=O)c1sc(N)nc1C [5h, N′-(1-(2-amino-4-methylthiazol-5-yl)ethylidene)-2-(5,5-dioxido-3-phenylbenzo[e]pyrazolo[4,3-c][1,2]thiazin-4(1H)-yl)acetohydrazide]	> 100	no toxicity	> 100	no toxicity	–	no toxicity	–
27.8	CC(=NNC(=O)CN1c2c(-c3ccccc3)n[nH]c2-c2ccccc2S1(=O)=O)c1cc2ccccc2oc1=O [5k, 2-(5,5-Dioxido-3-phenylbenzo[e]pyrazolo[4,3-c][1,2]thiazin-4(1H)-yl)-N′-(1-(2-oxo-2H-chromen-3-yl)ethylidene)acetohydrazide]	> 100	non-toxic	82.7	non-toxic	–	–	–
16.8	CC(=NNC(=O)CN1c2c(-c3ccccc3)n[nH]c2-c2ccccc2S1(=O)=O)c1sccc1Cl [5e, N′-(1-(3-chlorothiophen-2-yl)ethylidene)-2-(5,5-dioxido-3-phenylbenzo[e]pyrazolo[4,3-c][1,2]thiazin-4(1H)-yl)acetohydrazide]	> 100	non-toxic	69.1	non-toxic	–	–	–
13.9	O=C(CN1c2c(-c3ccccc3)n[nH]c2-c2ccccc2S1(=O)=O)NN=Cc1cccs1 [5w, 2-(5,5-Dioxido-3-phenylbenzo[e]pyrazolo[4,3-c][1,2]thiazin-4(1H)-yl)-N′-(thiophen-2-ylmethylene)acetohydrazide]	41.8	no toxicity	30.6	no toxicity	–	–	–
19.6	CC(=NNC(=O)CN1c2c(-c3ccccc3)n[nH]c2-c2ccccc2S1(=O)=O)c1sccc1Br [5f, N′-(1-(3-bromothiophen-2-yl)ethylidene)-2-(5,5-dioxido-3-phenylbenzo[e]pyrazolo[4,3-c][1,2]thiazin-4(1H)-yl)acetohydrazide]	> 100	–	42.8	–	–	–	–
10.7	CC(=NNC(=O)CN1c2c(-c3ccccc3)n[nH]c2-c2ccccc2S1(=O)=O)c1ccsc1 [5c, 2-(5,5-Dioxido-3-phenylbenzo[e]pyrazolo[4,3-c][1,2]thiazin-4(1H)-yl)-N′-(1-(thiophen-3-yl)ethylidene)acetohydrazide]	78.7	no toxicity	73.2	no toxicity	–	–	–
13.8	CC(=NNC(=O)CN1c2c(-c3ccccc3)n[nH]c2-c2ccccc2S1(=O)=O)c1ccc(C)s1 [5m, 2-(5,5-Dioxido-3-phenylbenzo[e]pyrazolo[4,3-c][1,2]thiazin-4(1H)-yl)-N′-(1-(5-methylthiophen-2-yl)ethylidene)acetohydrazide]	30.6	–	62.3	–	–	–	–
9.9	CC(=NNC(=O)CN1c2c(-c3ccccc3)n[nH]c2-c2ccccc2S1(=O)=O)c1cc(C)oc1C [5t, N′-(1-(2,5-dimethylfuran-3-yl)ethylidene)-2-(5,5-dioxido-3-phenylbenzo[e]pyrazolo[4,3-c][1,2]thiazin-4(1H)-yl)acetohydrazide]	41.4	–	17.3	–	–	–	–
8.2	CC(=NNC(=O)CN1c2c(-c3ccccc3)n[nH]c2-c2ccccc2S1(=O)=O)c1nccs1 [5u, 2-(5,5-Dioxido-3-phenylbenzo[e]pyrazolo[4,3-c][1,2]thiazin-4(1H)-yl)-N′-(1-(thiazol-2-yl)ethylidene)acetohydrazide]	43.1	–	15.7	–	–	–	–
17.6	CC(=NNC(=O)CN1c2c(-c3ccccc3)n[nH]c2-c2ccccc2S1(=O)=O)c1cc(C)sc1C [5d, N′-(1-(2,5-dimethylthiophen-3-yl)ethylidene)-2-(5,5-dioxido-3-phenylbenzo[e]pyrazolo[4,3-c][1,2]thiazin-4(1H)-yl)acetohydrazide]	44.4	–	36.5	–	–	–	–
20	CC(=NNC(=O)CN1c2c(-c3ccccc3)n[nH]c2-c2ccccc2S1(=O)=O)c1ccc[nH]1 [5o, N′-(1-(1H-pyrrol-2-yl)ethylidene)-2-(5,5-dioxido-3-phenylbenzo[e]pyrazolo[4,3-c][1,2]thiazin-4(1H)-yl)acetohydrazide]	22.3	–	41.4	–	–	–	–
24.2	CC(=NNC(=O)CN1c2c(-c3ccccc3)n[nH]c2-c2ccccc2S1(=O)=O)c1ccc2ccccc2c1 [5l, 2-(5,5-Dioxido-3-phenylbenzo[e]pyrazolo[4,3-c][1,2]thiazin-4(1H)-yl)-N′-(1-(naphthalen-2-yl)ethylidene)acetohydrazide]	< 1	–	12.2	–	–	–	–
8.4	CC(=NNC(=O)CN1c2c(-c3ccccc3)n[nH]c2-c2ccccc2S1(=O)=O)c1ccc(Cl)s1 [5g, N′-(1-(5-chlorothiophen-2-yl)ethylidene)-2-(5,5-dioxido-3-phenylbenzo[e]pyrazolo[4,3-c][1,2]thiazin-4(1H)-yl)acetohydrazide]	57.4	–	13.9	–	–	–	–
5	CC(=NNC(=O)CN1c2c(-c3ccccc3)n[nH]c2-c2ccccc2S1(=O)=O)c1ccc([N+](=O)[O-])s1 [5r, 2-(5,5-Dioxido-3-phenylbenzo[e]pyrazolo[4,3-c][1,2]thiazin-4(1H)-yl)-N′-(1-(5-nitrothiophen-2-yl)ethylidene)acetohydrazide]	43.6	–	85	–	–	–	–

SMILES	IC50 at 5 day (in vitro) [µM]	IC50 at 5 day [1] [µM]	toxicity in VERO cells (in words) (VERO cells)	IC50 at 5 day [2] [µM]	toxicity in primary human PBM cells (in words) (primary human PBM cells)	anti-HIV-1 activity (in words) (HIV-1)	toxicity in CEM cells (in words) (CEM cells)	EC50 (HIV-1) [µM]
CC(=NNC(=O)CN1c2c(-c3ccccc3)n[nH]c2-c2ccccc2S1(=O)=O)c1cc2ccccc2o1 [5n, N′-(1-(benzofuran-2-yl)ethylidene)-2-(5,5-dioxido-3-phenylbenzo[e]pyrazolo[4,3-c][1,2]thiazin-4(1H)-yl)acetohydrazide]	22.4	23	–	> 100	–	inactive	–	–
CC(=NNC(=O)CN1c2c(-c3ccccc3)n[nH]c2-c2ccccc2S1(=O)=O)c1cccs1 [5a, 2-(5,5-Dioxido-3-phenylbenzo[e]pyrazolo[4,3-c][1,2]thiazin-4(1H)-yl)-N′-(1-(thiophen-2-yl)ethylidene)acetohydrazide]	23.3	77.2	no toxicity	88	no toxicity	–	–	11.2
CC(=NNC(=O)CN1c2c(-c3ccccc3)n[nH]c2-c2ccccc2S1(=O)=O)c1sccc1C [5b, 2-(5,5-Dioxido-3-phenylbenzo[e]pyrazolo[4,3-c][1,2]thiazin-4(1H)-yl)-N′-(1-(3-methylthiophen-2-yl)ethylidene)acetohydrazide]	13.1	75.3	–	56.2	–	–	–	11.6
CC(=NNC(=O)CN1c2c(-c3ccccc3)n[nH]c2-c2ccccc2S1(=O)=O)c1ccc(C)o1 [5s, 2-(5,5-Dioxido-3-phenylbenzo[e]pyrazolo[4,3-c][1,2]thiazin-4(1H)-yl)-N′-(1-(5-methylfuran-2-yl)ethylidene)acetohydrazide]	15.4	> 100	–	53.8	–	inactive	–	–
CC(=NNC(=O)CN1c2c(-c3ccccc3)n[nH]c2-c2ccccc2S1(=O)=O)c1ccncc1 [5v, 2-(5,5-Dioxido-3-phenylbenzo[e]pyrazolo[4,3-c][1,2]thiazin-4(1H)-yl)-N′-(1-(pyridin-4-yl)ethylidene)acetohydrazide]	34.5	84.1	–	75.6	–	inactive	–	–
CC(=NNC(=O)CN1c2c(-c3ccccc3)n[nH]c2-c2ccccc2S1(=O)=O)c1cc(C)cs1 [5j, 2-(5,5-Dioxido-3-phenylbenzo[e]pyrazolo[4,3-c][1,2]thiazin-4(1H)-yl)-N′-(1-(4-methylthiophen-2-yl)ethylidene)acetohydrazide]	18.3	6	–	> 100	–	–	–	13.3
